Results from PubChem BioAssay (NCI).
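Five concentrations, 48 hours, 96-well plates. TGI denotes the concentration required for complete inhibition of growth.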

What was measured:
Experiment in all cases: NCI tumour cell line growth inhibition, 48 h
[1] = system: RPMI-8226 leukemia
[2] = system: OVCAR-8 ovarian
[3] = system: NCI-H23 lung
[4] = system: IGROV1 ovarian
[5] = system: CCRF-CEM leukemia
[6] = system: HT29 colon
[7] = system: NCI-H522 lung
[8] = system: K-562 leukemia
[9] = system: UO-31 renal
[10] = system: HS 578T breast
[11] = system: OVCAR-3 ovarian
[12] = system: OVCAR-5 ovarian
[13] = system: KM12 colon
[14] = system: HOP-62 NSCLC
[15] = system: MALME-3M melanoma
[16] = system: COLO 205 colon
[17] = system: MOLT-4 leukemia
[18] = system: MDA-MB-231 breast
[19] = system: HCT-15 colon
[20] = system: UACC-62 melanoma
[21] = system: OVCAR-4 ovarian
[22] = system: SK-MEL-5 melanoma
[23] = system: SK-MEL-2 melanoma
[24] = system: HCC-2998 colon
[25] = system: SR leukemia
[26] = system: UACC-257 melanoma
[27] = system: BT-549 breast
[28] = system: SW-620 colon
[29] = system: PC-3 prostate
[30] = system: MCF7 breast
[31] = system: RXF 393 renal
[32] = system: A549 NSCLC
[33] = system: M14 melanoma
[34] = system: NCI/ADR-RES ovarian
[35] = system: NCI-H460 lung
[36] = system: 786-0 renal
[37] = system: A498 renal
[38] = system: U251 CNS
[39] = system: MDA-MB-435
[40] = system: SK-MEL-28 melanoma
[41] = system: ACHN renal
[42] = system: SF-295 CNS
[43] = system: HCT-116 colon
[44] = system: SK-OV-3 ovarian
[45] = system: HOP-92 NSCLC
[46] = system: SNB-19 CNS
[47] = system: MDA-N
[48] = system: EKVX NSCLC
[49] = system: DU-145 prostate
[50] = system: CAKI-1 renal
[51] = system: HL-60(TB) leukemia
[52] = system: LOX IMVI melanoma
[53] = system: SNB-75 CNS
[54] = system: SF-539 CNS
[55] = system: NCI-H226 lung
[56] = system: SN12C renal

Measured: TGI

c1ccc(C(=NCCC2CNc3ccccc32)c2ccccc2)cc1 (stereo not given)
not listed: [51] | [52] | [53] | [54] | [55] | [56]
> 100 µM: all other assays above

O=S(=O)(SC1=NCCN1)c1cccc2ccccc12
76 µM: [27]
34.4 µM: [16]
36.2 µM: [7]
45.1 µM: [13]
49.6 µM: [54]
83.7 µM: [46]
73 µM: [55]
67.8 µM: [32]
45.6 µM: [18]
89.7 µM: [37]
43 µM: [22]
39.4 µM: [47]
74.9 µM: [36]
59.9 µM: [50]
91.2 µM: [3]
89.9 µM: [4]
71.8 µM: [31]
70.5 µM: [41]
45.7 µM: [44]
46 µM: [53]
66.6 µM: [1]
95.9 µM: [17]
> 10 µM: [51] | [24] | [25]
84.3 µM: [35]
51.2 µM: [42]
63.5 µM: [8]
93.5 µM: [12]
48.1 µM: [56]
not listed: [10]
> 100 µM: all other assays above
